From PubChem BioAssay AID1963967 (Molecular Pharmacology Branch, DTP, NCI, 2024)
“And” between values parts separate entries of the source, which are not always exact repeats. Identical values can stand only once.

Tested on: 855422-203-R-J1-PDC spheroids with HUVEC/MSC, viability
Assay: Anticancer human tumor 855422-203-R-J1-PDC patient-derived bladder carcinoma cell line growth inhibition [PI3K]
Conditions: for viability, T/C: stronger effect = lower value; active means viability on the fitted dose curve at most 10% of control; inactive means the rest
Method in brief: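 Tumor cells were combined with HUVEC and MSCs into spheroids, then dosed with PI3K-inhibitor combinations over half-log ranges capped near clinical Cmax or 10 microM.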

[1] = curve of first compound, second compound 0.00316 µM
[2] = curve of first compound, second compound 0.01 µM
[3] = curve of first compound, second compound 0.0316 µM
[4] = curve of first compound, second compound 0.1 µM
[5] = curve of first compound, second compound 0.316 µM
[6] = curve of first compound, second compound 1 µM
[7] = second compound 0.00316 µM, first compound 0.000316 µM
[8] = second compound 0.00316 µM, first compound 0.001 µM
[9] = second compound 0.00316 µM, first compound 0.00316 µM
[10] = second compound 0.00316 µM, first compound 0.01 µM
[11] = second compound 0.00316 µM, first compound 0.0316 µM
[12] = second compound 0.00316 µM, first compound 0.1 µM
[13] = second compound 0.01 µM, first compound 0.000316 µM
[14] = second compound 0.01 µM, first compound 0.001 µM
[15] = second compound 0.01 µM, first compound 0.00316 µM
[16] = second compound 0.01 µM, first compound 0.01 µM
[17] = second compound 0.01 µM, first compound 0.0316 µM
[18] = second compound 0.01 µM, first compound 0.1 µM
[19] = second compound 0.0316 µM, first compound 0.000316 µM
[20] = second compound 0.0316 µM, first compound 0.001 µM
[21] = second compound 0.0316 µM, first compound 0.00316 µM
[22] = second compound 0.0316 µM, first compound 0.01 µM
[23] = second compound 0.0316 µM, first compound 0.0316 µM
[24] = second compound 0.0316 µM, first compound 0.1 µM
[25] = second compound 0.1 µM, first compound 0.000316 µM
[26] = second compound 0.1 µM, first compound 0.001 µM
[27] = second compound 0.1 µM, first compound 0.00316 µM
[28] = second compound 0.1 µM, first compound 0.01 µM
[29] = second compound 0.1 µM, first compound 0.0316 µM
[30] = second compound 0.1 µM, first compound 0.1 µM
[31] = second compound 0.316 µM, first compound 0.000316 µM
[32] = second compound 0.316 µM, first compound 0.001 µM
[33] = second compound 0.316 µM, first compound 0.00316 µM
[34] = second compound 0.316 µM, first compound 0.01 µM
[35] = second compound 0.316 µM, first compound 0.0316 µM
[36] = second compound 0.316 µM, first compound 0.1 µM
[37] = second compound 1 µM, first compound 0.000316 µM
[38] = second compound 1 µM, first compound 0.001 µM
[39] = second compound 1 µM, first compound 0.00316 µM
[40] = second compound 1 µM, first compound 0.01 µM
[41] = second compound 1 µM, first compound 0.0316 µM
[42] = second compound 1 µM, first compound 0.1 µM
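Further: agents incubated with spheroids for one week before read-out.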
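Wherever viability, T/C is given: 100% = DMSO vehicle-treated control wells.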

Cn1ncnc1[C@H]1c2n[nH]c(=O)c3cc(F)cc(c23)N[C@@H]1c1ccc(F)cc1 + COc1c(OCCCN2CCOCC2)ccc2c3n(c(=NC(=O)c4cnc(N)nc4)nc12)CCN3
< 0.316 nM: IC50 [4] | IC50 [5] | IC50 [6]
active: viability, T/C [31] 9.77% | viability, T/C [32] 8.64% | viability, T/C [33] 8.11% | viability, T/C [34] 8.04% | viability, T/C [35] 7.3% | viability, T/C [36] 8.75% | viability, T/C [37] 4.95% | viability, T/C [38] 3.74% | viability, T/C [39] 3.02% | viability, T/C [40] 3.29% | viability, T/C [41] 4.31% | viability, T/C [42] 3.2%
inactive: viability, T/C [7] 97.2% | viability, T/C [8] 98% | viability, T/C [9] 98.6% | viability, T/C [10] 90.5% | viability, T/C [11] 90.8% | viability, T/C [12] 91.7% | viability, T/C [13] 88.8% | viability, T/C [14] 80.7% | viability, T/C [15] 78% | viability, T/C [16] 97.2% | viability, T/C [17] 94.6% | viability, T/C [18] 92.2% | viability, T/C [19] 65.5% | viability, T/C [20] 62.2% | viability, T/C [21] 62.2% | viability, T/C [22] 52.7% | viability, T/C [23] 52.7% | viability, T/C [24] 53.1% | viability, T/C [25] 24.2% | viability, T/C [26] 25.9% | viability, T/C [27] 29.1% | viability, T/C [28] 27.5% | viability, T/C [29] 22.9% | viability, T/C [30] 24.5%
> 100 nM: IC50 [1] | IC50 [2] | IC50 [3]

Cn1ncnc1[C@H]1c2n[nH]c(=O)c3cc(F)cc(c23)N[C@@H]1c1ccc(F)cc1 + CC(Nc1ccc2c(c1)OCCn1cc(N3C(=O)OCC3C(F)F)nc1-2)C(N)=O
inactive: viability, T/C [7] 104% | viability, T/C [8] 91.8% | viability, T/C [9] 107% | viability, T/C [10] 87.5% | viability, T/C [11] 97.8% | viability, T/C [12] 109% | viability, T/C [13] 114% | viability, T/C [14] 92.5% | viability, T/C [15] 97% | viability, T/C [16] 99.4% | viability, T/C [17] 100% | viability, T/C [18] 104% | viability, T/C [19] 96.4% | viability, T/C [20] 92.3% | viability, T/C [21] 90.6% | viability, T/C [22] 88.3% | viability, T/C [23] 96% | viability, T/C [24] 91.8% | viability, T/C [25] 74.7% | viability, T/C [26] 72.9% | viability, T/C [27] 55.5% | viability, T/C [28] 69% | viability, T/C [29] 78% | viability, T/C [30] 80.8% | viability, T/C [31] 56.4% | viability, T/C [32] 56% | viability, T/C [33] 42.4% | viability, T/C [34] 56.1% | viability, T/C [35] 54.6% | viability, T/C [36] 40.7% | viability, T/C [37] 39.1% | viability, T/C [38] 36.7% | viability, T/C [39] 35.7% | viability, T/C [40] 35.6% | viability, T/C [41] 33.5% | viability, T/C [42] 27.2%
> 100 nM: IC50 [1] | IC50 [2] | IC50 [3] | IC50 [4]
< 0.316 nM: IC50 [6]
11.2 nM: IC50 [5]

Cn1ncnc1[C@H]1c2n[nH]c(=O)c3cc(F)cc(c23)N[C@@H]1c1ccc(F)cc1
inactive: viability, T/C (compound 0.000316 µM) 113% [middle of 4 runs] | viability, T/C (compound 0.001 µM) 107% [middle of 4 runs] | viability, T/C (compound 0.00316 µM) 104% (2×) and 108% and 109% | viability, T/C (compound 0.01 µM) 101% [middle of 4 runs] | viability, T/C (compound 0.0316 µM) 110% [middle of 4 runs] | viability, T/C (compound 0.1 µM) 107% and 100% (3×)
> 100 nM: IC50 (curve of compound)

CC(=O)c1c(C)c2cnc(Nc3ccc(N4CCNCC4)cn3)nc2n(C2CCCC2)c1=O + CC(Nc1ccc2c(c1)OCCn1cc(N3C(=O)OCC3C(F)F)nc1-2)C(N)=O
10.6 nM: IC50 [5]
> 100 nM: IC50 [1] | IC50 [2] | IC50 [3]
< 0.316 nM: IC50 [6]
75.5 nM: IC50 [4]
inactive: viability, T/C [7] 110% | viability, T/C [8] 88.9% | viability, T/C [9] 109% | viability, T/C [10] 84.1% | viability, T/C [11] 97.6% | viability, T/C [12] 74.2% | viability, T/C [13] 99% | viability, T/C [14] 87% | viability, T/C [15] 98.3% | viability, T/C [16] 86% | viability, T/C [17] 98% | viability, T/C [18] 75.8% | viability, T/C [19] 84.1% | viability, T/C [20] 84% | viability, T/C [21] 86.3% | viability, T/C [22] 85.1% | viability, T/C [23] 83.5% | viability, T/C [24] 60.8% | viability, T/C [25] 72.1% | viability, T/C [26] 78.4% | viability, T/C [27] 62.1% | viability, T/C [28] 73.7% | viability, T/C [29] 72% | viability, T/C [30] 43.2% | viability, T/C [31] 54.2% | viability, T/C [32] 51.3% | viability, T/C [33] 57.4% | viability, T/C [34] 47.9% | viability, T/C [35] 44.4% | viability, T/C [36] 29.9% | viability, T/C [37] 37% | viability, T/C [38] 36% | viability, T/C [39] 31.9% | viability, T/C [40] 30.6% | viability, T/C [41] 31.2% | viability, T/C [42] 15.4%

Cn1nccc1Nc1nccc(-c2ccn(C(CO)c3ccc(Cl)c(F)c3)c(=O)c2)n1 (centres undefined)
8.75 µM [middle of 4 runs]: IC50 (curve of compound)
inactive: viability, T/C (compound 0.0316 µM) 112% [middle of 4 runs] | viability, T/C (compound 0.1 µM) 99.8% [middle of 4 runs] | viability, T/C (compound 0.316 µM) 108% [middle of 4 runs] | viability, T/C (compound 1 µM) 90.7% [middle of 4 runs] | viability, T/C (compound 3.16 µM) 93.1% [middle of 4 runs] | viability, T/C (compound 10 µM) 44% [middle of 4 runs]

Cn1nccc1Nc1nccc(-c2ccn(C(CO)c3ccc(Cl)c(F)c3)c(=O)c2)n1 (centres undefined) + CC(Nc1ccc2c(c1)OCCn1cc(N3C(=O)OCC3C(F)F)nc1-2)C(N)=O
< 31.6 nM: IC50 [6]
active: viability, T/C (second compound 1 µM, first compound 10 µM) 8.01%
5550 nM: IC50 [3]
inactive: viability, T/C [11] 103% | viability, T/C [12] 84.7% | viability, T/C (second compound 0.00316 µM, first compound 0.316 µM) 95.7% | viability, T/C (second compound 0.00316 µM, first compound 1 µM) 89.7% | viability, T/C (second compound 0.00316 µM, first compound 3.16 µM) 80.7% | viability, T/C (second compound 0.00316 µM, first compound 10 µM) 38.3% | viability, T/C [17] 98.4% | viability, T/C [18] 96.2% | viability, T/C (second compound 0.01 µM, first compound 0.316 µM) 93.5% | viability, T/C (second compound 0.01 µM, first compound 1 µM) 82.8% | viability, T/C (second compound 0.01 µM, first compound 3.16 µM) 76% | viability, T/C (second compound 0.01 µM, first compound 10 µM) 37% | viability, T/C [23] 62.7% | viability, T/C [24] 82.1% | viability, T/C (second compound 0.0316 µM, first compound 0.316 µM) 89.7% | viability, T/C (second compound 0.0316 µM, first compound 1 µM) 82.8% | viability, T/C (second compound 0.0316 µM, first compound 3.16 µM) 70.1% | viability, T/C (second compound 0.0316 µM, first compound 10 µM) 29.1% | viability, T/C [29] 72.4% | viability, T/C [30] 79.4% | viability, T/C (second compound 0.1 µM, first compound 0.316 µM) 79.1% | viability, T/C (second compound 0.1 µM, first compound 1 µM) 64.7% | viability, T/C (second compound 0.1 µM, first compound 3.16 µM) 56.8% | viability, T/C (second compound 0.1 µM, first compound 10 µM) 20.2% | viability, T/C [35] 53.6% | viability, T/C [36] 52.5% | viability, T/C (second compound 0.316 µM, first compound 0.316 µM) 51.8% | viability, T/C (second compound 0.316 µM, first compound 1 µM) 49.5% | viability, T/C (second compound 0.316 µM, first compound 3.16 µM) 29.3% | viability, T/C (second compound 0.316 µM, first compound 10 µM) 10.6% | viability, T/C [41] 35.9% | viability, T/C [42] 32.2% | viability, T/C (second compound 1 µM, first compound 0.316 µM) 29.9% | viability, T/C (second compound 1 µM, first compound 1 µM) 26.4% | viability, T/C (second compound 1 µM, first compound 3.16 µM) 17.3%
3780 nM: IC50 [4]
796 nM: IC50 [5]
7220 nM: IC50 [1]
6700 nM: IC50 [2]

CC(Cn1ccc(-c2ccc(C#N)c(Cl)c2)n1)NC(=O)c1cc(C(C)O)[nH]n1 (centres undefined)
> 10000 nM: IC50 (curve of compound)
inactive: viability, T/C (compound 0.0316 µM) 108% [middle of 4 runs] | viability, T/C (compound 0.1 µM) 96.9% [middle of 4 runs] | viability, T/C (compound 0.316 µM) 110% [middle of 4 runs] | viability, T/C (compound 1 µM) 93.5% [middle of 4 runs] | viability, T/C (compound 3.16 µM) 97.2% [middle of 4 runs] | viability, T/C (compound 10 µM) 86.2% [middle of 4 runs]
